IC50 data for 30 compounds are collected here from patent US9067938B2, “Pyrazolopyridinone derivatives as LPA receptor antagonists” (Merck Patent GmbH, priority 2010, dated 2015).

For orientation: IC50 means the concentration that inhibits the measured activity by half.

Chain of LPA2 receptor (Q9HBW0 whole entry): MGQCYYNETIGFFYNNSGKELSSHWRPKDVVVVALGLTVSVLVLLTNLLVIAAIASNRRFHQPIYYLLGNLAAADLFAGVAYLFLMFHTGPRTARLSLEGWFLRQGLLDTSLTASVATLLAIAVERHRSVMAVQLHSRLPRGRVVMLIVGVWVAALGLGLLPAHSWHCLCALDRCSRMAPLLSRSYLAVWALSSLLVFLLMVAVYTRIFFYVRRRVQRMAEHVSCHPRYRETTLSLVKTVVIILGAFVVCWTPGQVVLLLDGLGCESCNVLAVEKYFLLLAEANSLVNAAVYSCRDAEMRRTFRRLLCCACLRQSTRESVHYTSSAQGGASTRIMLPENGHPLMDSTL

The target in this test is LPA2 receptor (Homo sapiens, UniProt Q9HBW0). In words: LPA2R-calciumflux assay. It counts as cell-based. To be noted: U2OS cells recombinant expressing LPA2R; LPA-induced intracellular calcium signal (FLIPR Tetra); 10 concentrations from 30 uM to 1 nM, 1% DMSO. The source says:
Description of the LPA2R Assay
Cell Cultivation/Propagation
LPA2R-calciumflux Assay Protocol
The assay detects intra cellular calcium which is generated by cells upon activation of the LPA2 receptor by its ligand LPA. This transient calcium mobilisation can be monitored using a commercial calcium detection kit (e.g. from Molecular Devices). The main component of such a kit is a dye, which becomes fluorescent when calcium is present—a transient fluorescence signal after laddition of a ligand to a test well are the result. Readers like the FLIPR (from Molecular Devices) can be used to monitor such transient “Ca-flux” signals.
The signals are calculated according to peak maximum minus base line. Compounds which are antogonists of LPA lead to a decreased mobilisation of intracellular calcium and thus to a lower signal. The assay is performed in microplates (384 wells per plate).
The assay itself is run according to the following procedure: • 50 uL seed cells (10000 cells/well in DMEM buffer) • Incubate 24 h at 37° C., 10% CO2 • aspirate medium • 50 uL add calcium dye 1×HBSS/HEPES buffer • incubate 1 h at 37° C. (“loading”) • equilibrate 10 min at RT • 5 uL add compounds in HEPES buffer • shake 10 sec. @ 1000 rpm • incubate 15 min at RT • 20 uL add LPA (in the FLIPR Tetra) in KREBS-Puffer/BSA & measurement
The cells are seeded in DMEM buffer (DMEM, 10% FCS, 10 mM HEPES, 1% Pen/Strep).
Dye loading is done in HBSS/HEPES buffer (100 mL 10×HBSS+20 mL 1M HEPES+880 mL water, pH 7.4)
The LPA is added in Krebs/BSA buffer (120 mM NaCl, 5 mM KCl, 0.62 mM MgSO4, 1.8 mM CaCl2, 10 mM HEPES, 6 mM D(+)-Glucose, 0.2% BSA, pH 7.4).
The compounds are pre-diluted in HEPES buffer (20 mM, pH 7.4), whereby the final DMSO content in the assay is kept at 1%. The compounds are pre-diluted in order to generate dose response series on the microplates. The dose response series consist of 10 concentrations for each compound from 30 uM final to 1 nM final. From all compound wells the resulting signals are referred to control wells (located on each plate besides the compound wells) in terms of % activity.
[formula] From these % activity values—along with the corresponding compound concentrations—IC50 values are fitted for each compound using standard fitting programs such as Graphpad Prism. Here the method “log(inhibitor) vs. response—Variable slope” is used. Reader Settings (FLIPR Tetra) • ExcWLength:470—495 • Em.Wlength: 515—575 • Gain: 50 • Exp. Time: 0,4 • Exc.Intensity: 80 • READ with TF • First read interval: 1,00 s • Number of first reads: 240 • Reads before dispense: 10 • Second read interval: 1,00 s • Number of second reads: 0 • Save Images No
For orientation: A change in cytosolic calcium serves as a functional read-out for many receptors and channels.
With `O=C1C[C@@](O)(C(F)(F)F)c2c(-c3ccccc3)n[nH]c2N1` [Compound 10, (−)-4-Hydroxy-3-phenyl-4-trifluoromethyl-1,4,5,7-tetrahydro-pyrazolo[3,4-b]pyridin-6-one], the IC50 is under 1 µM.

With `COc1cc(OC)cc(-c2n[nH]c3c2C(O)(C(F)(F)F)CC(=O)N3)c1` (stereo not drawn) [Compound 9, 3-(3,5-Dimethoxy-phenyl)-4-hydroxy-4-trifluoromethyl-1,4,5,7-tetrahydro-pyrazolo[3,4-b]pyridin-6-one], the IC50 is under 1 µM.

For `COc1cccc(-c2n[nH]c3c2C(O)(C(F)(F)F)CC(=O)N3)c1` (stereo not drawn) [Compound 32, 4-Hydroxy-3-(3-methoxy-phenyl)-4-trifluoromethyl-1,4,5,7-tetrahydro-pyrazolo[3,4-b]pyridin-6-one], the half-inhibitory concentration (IC50) was 1 to 10 µM.

For `O=C1Nc2[nH]nc(-c3ccccc3)c2C(O)(C(F)(F)F)C1CCO` (stereo not drawn) [Compound 26, 4-Hydroxy-5-(2-hydroxy-ethyl)-3-phenyl-4-trifluoromethyl-1,4,5,7-tetrahydro-pyrazolo[3,4-b]pyridin-6-one], the concentration for half-maximal inhibition (IC50) is over 10 µM.

With `Cn1nc(-c2ccccc2)c2c1NC(=O)CC2(O)C(F)(F)F` (stereo not drawn) [Compound 4, 4-Hydroxy-1-methyl-3-phenyl-4-trifluoromethyl-1,4,5,7-tetrahydro-pyrazolo[3,4-b]pyridin-6-one], the IC50 was over 10 µM.

Consider `O=C1CC(O)(C(F)(F)F)c2c(-c3ccccc3)nn(-c3ccccc3)c2N1` (stereo not drawn) [Compound 19, 4-Hydroxy-1,3-diphenyl-4-trifluoromethyl-1,4,5,7-tetrahydro-pyrazolo[3,4-b]pyridin-6-one], for which the half-inhibitory concentration (IC50) is over 10 µM.

For the compound `Cn1nc(-c2ccc(Cl)cc2)c2c1NC(=O)CC2(O)C(F)(F)F` (stereo not drawn) [Compound 18, 3(4-Chloro-phenyl)-4-hydroxy-1-methyl-4-trifluoromethyl-1,4,5,7-tetrahydro-pyrazolo[3,4-b]pyridin-6-one], the IC50 is over 10 µM.

Regarding `O=C1CC(O)(C(F)(F)F)c2c(-c3ccc(F)cc3)n[nH]c2N1` (stereo not drawn) [Compound 17, 3-(4-Fluoro-phenyl)-4-hydroxy-4-trifluoromethyl-1,4,5,7-tetrahydro-pyrazolo[3,4-b]pyridin-6-one], the IC50 was under 1 µM.

With `CC1C(=O)Nc2[nH]nc(-c3ccccc3)c2C1(O)C(F)(F)F` (stereo not drawn) [Compound 24, 4-Hydroxy-5-methyl-3-phenyl-4-trifluoromethyl-1,4,5,7-tetrahydro-pyrazolo[3,4-b]pyridin-6-one], the half-inhibitory concentration (IC50) fell in the range of 1 to 10 µM.

In the case of `CCN1C(=O)CC(O)(C(F)(F)F)c2c(-c3ccccc3)n[nH]c21` (stereo not drawn) [Compound 34, 7-Ethyl-4-hydroxy-3-phenyl-4-trifluoromethyl-1,4,5,7-tetrahydro-pyrazolo[3,4-b]pyridin-6-one], the IC50 is over 10 µM.

For the compound `O=C1CC(O)(C(F)(F)F)c2c(-c3cccc(Cl)c3)n[nH]c2N1` (stereo not drawn) [Compound 14, 3-(3-Chloro-phenyl)-4-hydroxy-4-trifluoromethyl-1,4,5,7-tetrahydro-pyrazolo[3,4-b]pyridin-6-one], the half-maximal inhibitory concentration (IC50) was under 1 µM.

Turning to `COC1C(=O)Nc2[nH]nc(-c3ccccc3)c2C1(O)C(F)(F)F` (stereo not drawn) [Compound 27, 4-Hydroxy-5-methoxy-3-phenyl-4-trifluoromethyl-1,4,5,7-tetrahydro-pyrazolo[3,4-b]pyridin-6-one], the IC50 is over 10 µM.

As to `Cc1ccc(-c2n[nH]c3c2C(O)(C(F)(F)F)CC(=O)N3)cc1` (stereo not drawn) [Compound 6, 4-Hydroxy-3-p-tolyl-4-trifluoromethyl-1,4,5,7-tetrahydro-pyrazolo[3,4-b]pyridin-6-one], the IC50 was under 1 µM.

As for `O=C1CC(O)(C(F)(F)F)c2c(-c3ccccc3)n[nH]c2N1` (stereo not drawn) [Compound 2, 4-Hydroxy-3-phenyl-4-trifluoromethyl-1,4,5,7-tetrahydro-pyrazolo[3,4-b]pyridin-6-one], the IC50 is under 1 µM.

As for `O=C1C[C@](O)(C(F)(F)F)c2c(-c3cccc(F)c3)n[nH]c2N1` [Compound 21, (+)-3-(3-Fluoro-phenyl)-4-hydroxy-4-trifluoromethyl-1,4,5,7-tetrahydro-pyrazolo[3,4-b]pyridin-6-one], the IC50 was over 10 µM.

Consider `Cn1nc(-c2cccs2)c2c1NC(=O)CC2(O)C(F)(F)F` (stereo not drawn) [Compound 7, 4-Hydroxy-1-methyl-3-thiophen-2-yl-4-trifluoromethyl-1,4,5,7-tetrahydro-pyrazolo[3,4-b]pyridin-6-one], for which the IC50 was over 10 µM.

Turning to `O=C1CC(O)(c2cc(C(F)(F)F)cc(C(F)(F)F)c2)c2c(-c3ccccc3)n[nH]c2N1` (stereo not drawn) [Compound 35, 4-(3,5-Bis-trifluoromethyl-phenyl)-4-hydroxy-3-phenyl-1,4,5,7-tetrahydro-pyrazolo[3,4-b]pyridin-6-one], the IC50 was over 10 µM.

On to `O=C1CC(O)(C(F)(F)F)c2c(Cc3ccccc3)n[nH]c2N1` (stereo not drawn) [Compound 28, 3-Benzyl-4-hydroxy-4-trifluoromethyl-1,4,5,7-tetrahydro-pyrazolo[3,4-b]pyridin-6-one], for which the IC50 was over 10 µM.

For `O=C1CC(O)(C(F)(F)F)c2c(-c3ccncc3)n[nH]c2N1` (stereo not drawn) [Compound 22, 4-Hydroxy-3-pyridin-4-yl-4-trifluoromethyl-1,4,5,7-tetrahydro-pyrazolo[3,4-b]pyridin-6-one], the 50% inhibitory concentration (IC50) was under 1 µM.

On to `O=C1CC(O)(C(F)(F)F)c2c(-c3cccc(F)c3)n[nH]c2N1` (stereo not drawn) [Compound 1, 3-(3-Fluoro-phenyl)-4-hydroxy-4-trifluoromethyl-1,4,5,7-tetrahydro-pyrazolo[3,4-b]pyridin-6-one], for which the IC50 is under 1 µM.

With `O=C1CC(O)(C(F)(F)F)c2c(C3CC3)n[nH]c2N1` (stereo not drawn) [Compound 16, 3-Cyclopropyl-4-hydroxy-4-trifluoromethyl-1,4,5,7-tetrahydro-pyrazolo[3,4-b]pyridin-6-one], the IC50 was over 10 µM.

In the case of `COc1ccc(-c2n[nH]c3c2C(O)(C(F)(F)F)CC(=O)N3)cc1` (stereo not drawn) [Compound 3, 4-Hydroxy-3-(4-methoxy-phenyl)-4-trifluoromethyl-1,4,5,7-tetrahydro-pyrazolo[3,4-b]pyridin-6-one], the IC50 is under 1 µM.

Turning to `O=C1C[C@@](O)(C(F)(F)F)c2c(-c3cccc(F)c3)n[nH]c2N1` [Compound 20, (−)-3-(3-Fluoro-phenyl)-4-hydroxy-4-trifluoromethyl-1,4,5,7-tetrahydro-pyrazolo[3,4-b]pyridin-6-one], the IC50 was under 1 µM.

As to `O=C1C[C@](O)(C(F)(F)F)c2c(-c3ccccc3)n[nH]c2N1` [Compound 11, (+)-4-Hydroxy-3-phenyl-4-trifluoromethyl-1,4,5,7-tetrahydro-pyrazolo[3,4-b]pyridin-6-one], the IC50 is over 10 µM.

Turning to `O=C1CC(O)(C(F)(F)F)c2c(-c3cccs3)n[nH]c2N1` (stereo not drawn) [Compound 8, 4-Hydroxy-3-thiophen-2-yl-4-trifluoromethyl-1,4,5,7-tetrahydro-pyrazolo[3,4-b]pyridin-6-one], the IC50 is under 1 µM.

Take `Cc1c(-c2n[nH]c3c2C(O)(C(F)(F)F)CC(=O)N3)cnn1C` (stereo not drawn) [Compound 33, 3-(1,5-Dimethyl-1H-pyrazol-4-yl)-4-hydroxy-4-trifluoromethyl-1,4,5,7-tetrahydro-pyrazolo[3,4-b]pyridin-6-one]: the 50% inhibitory concentration (IC50) was 1 to 10 µM.

`O=C1CC(O)(C(F)(F)F)c2c(-c3cccc(C(F)(F)F)c3)n[nH]c2N1` (stereo not drawn) [Compound 15, 4-Hydroxy-4-trifluoromethyl-3-(3-trifluoromethyl-phenyl)-1,4,5,7-tetrahydro-pyrazolo[3,4-b]pyridin-6-one]: the IC50 was under 1 µM.

Consider `O=C1CC(O)(C(F)(F)F)c2c(-c3ccc(Cl)cc3)n[nH]c2N1` (stereo not drawn) [Compound 5, 3-(4-Chloro-phenyl)-4-hydroxy-4-trifluoromethyl-1,4,5,7-tetrahydro-pyrazolo[3,4-b]pyridin-6-one], for which the IC50 fell in the range of 1 to 10 µM.

For `CCC1C(=O)Nc2[nH]nc(-c3ccccc3)c2C1(O)C(F)(F)F` (stereo not drawn) [Compound 25, 4-Hydroxy-5-ethyl-3-phenyl-4-trifluoromethyl-1,4,5,7-tetrahydro-pyrazolo[3,4-b]pyridin-6-one], the half-inhibitory concentration (IC50) is over 10 µM.

Turning to `O=C1CC(O)(C(F)(F)F)c2c(-c3ccc(Br)cc3)n[nH]c2N1` (stereo not drawn) [Compound 12, 3-(4-Bromo-phenyl)-4-hydroxy-4-trifluoromethyl-1,4,5,7-tetrahydro-pyrazolo[3,4-b]pyridin-6-one], the IC50 is over 10 µM.
